Experimental data reported in ChEMBL document CHEMBL3885881, “DrugMatrix”.

Organism: Rattus norvegicus
Experiment: DrugMatrix - Regimen: Daily Repeat
Assay type: toxicity, organism-based, Sprague-Dawley
Design: regimen Daily Repeat, gender Male, age 6-8 weeks
Details: in vivo, po, 100 mg/kg, route oral GAVAGE, dose level Low, vehicle 100 % WATER; for ABSOLUTE BASOPHIL / ABSOLUTE EOSINOPHIL / ABSOLUTE LYMPHOCYTE / ABSOLUTE MONOCYTE / ABSOLUTE SEGMENTED NEUTROPHIL / BASOPHIL / EOSINOPHIL / ERYTHROCYTE COUNT / HEMATOCRIT / HEMOGLOBIN / LEUKOCYTE COUNT / LYMPHOCYTE / MEAN CORPUSCULAR HEMOGLOBIN / MEAN CORPUSCULAR HEMOGLOBIN CONCENTRATION / MEAN CORPUSCULAR VOLUME / MONOCYTE / NEUTROPHIL / NUCLEATED RED BLOOD CELLS / PLATELET COUNT: tissue Blood; for ALANINE AMINOTRANSFERASE / ALBUMIN / ALKALINE PHOSPHATASE / ASPARTATE AMINOTRANSFERASE / BLOOD UREA NITROGEN / CARBON DIOXIDE / CHLORIDE / CHOLESTEROL / CREATINE PHOSPHOKINASE / CREATININE / GLUCOSE / LACTATE DEHYDROGENASE / LIPASE / PHOSPHORUS / POTASSIUM / SODIUM / TOTAL BILIRUBIN / TOTAL PROTEIN / URIC ACID: tissue Plasma

O=C1O[C@H]([C@@H](O)CO)C(O)=C1O [ASCORBIC ACID]
ABSOLUTE BASOPHIL (72 h, time 3 day): 0 CELLS/uL | ABSOLUTE EOSINOPHIL (72 h, time 3 day): 27 CELLS/uL | ABSOLUTE LYMPHOCYTE (72 h, time 3 day): 7261.67 CELLS/uL | ABSOLUTE MONOCYTE (72 h, time 3 day): 27 CELLS/uL | ABSOLUTE SEGMENTED NEUTROPHIL (72 h, time 3 day): 717.67 CELLS/uL | BASOPHIL (72 h, time 3 day): 0% | EOSINOPHIL (72 h, time 3 day): 0.33% | ERYTHROCYTE COUNT (72 h, time 3 day): 4.91 x10E6/uL | HEMATOCRIT (72 h, time 3 day): 32.13% | HEMOGLOBIN (72 h, time 3 day): 13.13 G/DL | LEUKOCYTE COUNT (72 h, time 3 day): 8.03 x10E3/uL | LYMPHOCYTE (72 h, time 3 day): 89% | MEAN CORPUSCULAR HEMOGLOBIN (72 h, time 3 day): 26.8 pg | MEAN CORPUSCULAR HEMOGLOBIN CONCENTRATION (72 h, time 3 day): 40.87 G/DL | MEAN CORPUSCULAR VOLUME (72 h, time 3 day): 65.43 fL | MONOCYTE (72 h, time 3 day): 0.33% | NEUTROPHIL (72 h, time 3 day): 10.33% | NUCLEATED RED BLOOD CELLS (72 h, time 3 day): 0.33 /100WBC | PLATELET COUNT (72 h, time 3 day): 954.33 x10E3/uL | ALANINE AMINOTRANSFERASE (72 h, time 3 day): 50 u/L | ALBUMIN (72 h, time 3 day): 4.53 G/DL | ALKALINE PHOSPHATASE (72 h, time 3 day): 454.67 u/L | ASPARTATE AMINOTRANSFERASE (72 h, time 3 day): 87 u/L | BLOOD UREA NITROGEN (72 h, time 3 day): 15 mg/dL | CARBON DIOXIDE (72 h, time 3 day): 32.33 mmol/L | CHLORIDE (72 h, time 3 day): 101 MEQ/L | CHOLESTEROL (72 h, time 3 day): 78.33 mg/dL | CREATINE PHOSPHOKINASE (72 h, time 3 day): 273 u/L | CREATININE (72 h, time 3 day): 0.25 mg/dL | GLUCOSE (72 h, time 3 day): 121.33 mg/dL | LACTATE DEHYDROGENASE (72 h, time 3 day): 148.67 u/L | LIPASE (72 h, time 3 day): 9.67 u/L | PHOSPHORUS (72 h, time 3 day): 12.13 mg/dL | POTASSIUM (72 h, time 3 day): 7.25 MEQ/L | SODIUM (72 h, time 3 day): 146.63 MEQ/L | TOTAL BILIRUBIN (72 h, time 3 day): 0.23 mg/dL | TOTAL PROTEIN (72 h, time 3 day): 6.33 G/DL | URIC ACID (72 h, time 3 day): 1.07 mg/dL | ABSOLUTE BASOPHIL (120 h, time 5 day): 0 CELLS/uL | ABSOLUTE EOSINOPHIL (120 h, time 5 day): 0 CELLS/uL | ABSOLUTE LYMPHOCYTE (120 h, time 5 day): 12684.67 CELLS/uL | ABSOLUTE MONOCYTE (120 h, time 5 day): 119.33 CELLS/uL | ABSOLUTE SEGMENTED NEUTROPHIL (120 h, time 5 day): 1596 CELLS/uL | BASOPHIL (120 h, time 5 day): 0% | EOSINOPHIL (120 h, time 5 day): 0% | ERYTHROCYTE COUNT (120 h, time 5 day): 5.44 x10E6/uL | HEMATOCRIT (120 h, time 5 day): 34.63% | HEMOGLOBIN (120 h, time 5 day): 13.63 G/DL | LEUKOCYTE COUNT (120 h, time 5 day): 14.4 x10E3/uL | LYMPHOCYTE (120 h, time 5 day): 88.33% | MEAN CORPUSCULAR HEMOGLOBIN (120 h, time 5 day): 25.07 pg | MEAN CORPUSCULAR HEMOGLOBIN CONCENTRATION (120 h, time 5 day): 39.4 G/DL | MEAN CORPUSCULAR VOLUME (120 h, time 5 day): 63.67 fL | MONOCYTE (120 h, time 5 day): 1% | NEUTROPHIL (120 h, time 5 day): 10.67% | NUCLEATED RED BLOOD CELLS (120 h, time 5 day): 0 /100WBC | PLATELET COUNT (120 h, time 5 day): 1152.33 x10E3/uL | ALANINE AMINOTRANSFERASE (120 h, time 5 day): 51.67 u/L | ALBUMIN (120 h, time 5 day): 4.3 G/DL | ALKALINE PHOSPHATASE (120 h, time 5 day): 417 u/L | ASPARTATE AMINOTRANSFERASE (120 h, time 5 day): 79 u/L | BLOOD UREA NITROGEN (120 h, time 5 day): 17 mg/dL | CARBON DIOXIDE (120 h, time 5 day): 33.33 mmol/L | CHLORIDE (120 h, time 5 day): 103 MEQ/L | CHOLESTEROL (120 h, time 5 day): 73 mg/dL | CREATINE PHOSPHOKINASE (120 h, time 5 day): 142.33 u/L | CREATININE (120 h, time 5 day): 0.2 mg/dL | GLUCOSE (120 h, time 5 day): 152.67 mg/dL | LACTATE DEHYDROGENASE (120 h, time 5 day): 82.33 u/L | LIPASE (120 h, time 5 day): 8.33 u/L | PHOSPHORUS (120 h, time 5 day): 12.97 mg/dL | POTASSIUM (120 h, time 5 day): 6.73 MEQ/L | SODIUM (120 h, time 5 day): 148.3 MEQ/L | TOTAL BILIRUBIN (120 h, time 5 day): 0.2 mg/dL | TOTAL PROTEIN (120 h, time 5 day): 6.23 G/DL | URIC ACID (120 h, time 5 day): 1.53 mg/dL
